Key:
KB cell line = settings: read-out: IC50 in KB cell line (++++); FA ligands per particle 12-22; linker-drug conjugates per particle 17-25
Experimental: (§1) The in vitro cytotoxicity of the NDCs disclosed herein were tested in cancer cells. The cancer cells were cultured in folic acid-free medium (RPMI1640, ThermoFisher, GIBCO) for at least one week before the study. Cells were plated in opaque 96-well plates at a density of 3×10^3 cells per well (total of […]) and allowed to attach overnight. The following day, cells were treated with NDC (FA-CDC) prepared using the linker-payload conjugate precursor compound 202 (Example 33), at a concentration range of 0-50 nM (0, 0.001, 0.005, 0.01, 0.05, 0.1, 0.5, 1, 5, 10, 50 nM) by adding […] of 10x stock FA-CDC Solution.
(§2) Cells were treated for a pre-defined exposure time (depending on the study design, e.g., 4-6 hours, or 7 days). In the case of short-exposure-time viability study, cancer cells in each wells were washed with […] PBS and refreshed with […] of cell medium. After washing, the plates were returned back to 37° C. incubator for 7 days before the viability assay. In the case of 7-day-exposure-time viability study, no additional washing step was performed. After 7 days, the cell viability was assessed using the CellTiter-Glo2.0 assay (Promega) according to manufacturer's instructions. Data for both viability and proliferation were plotted using Prism7 software (GraphPad).

SKOV-3 cell line = assay: In vitro cell viability assay of FA-CDCs (CellTiter-Glo2.0); assay type: cell-based; settings: FA ligands per particle 12-22; linker-drug conjugates per particle 17-25; read-out: IC50 inSKOV-3 cell line (+++)
Experimental: as §1
as §2, with “(GraphPad). Representative cell viability results of six FA-CDCs with similar surface density of Folic Acid targeting ligands and drug linkers is presented in provided in Table 4.” for “(GraphPad).”

[1] = Drug-release assay of nanoparticle-conjugated linker-payloads under cleavage conditions (Cat-B, redox-responsive or pH-sensitive cleaving study), RP-HPLC; assay type: in vitro ADME; settings: linker-payload conjugated to DBCO-functionalized silica nanoparticle, 37° C., 24 hours
Summary of the method: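 Azide linker-drugs were click-conjugated to DBCO-functionalized ultrasmall silica nanoparticles and incubated under cleavage conditions, e.g., Cat-B in 25 mM MES, 5 mM DTT, pH 5.0. Released versus non-released drug was quantified by C18 RP-HPLC peak area. Gradients were 0.01% TFA water/acetonitrile for protease/redox linkers and water/acetonitrile for pH-sensitive linkers.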

SMILES | IC50 (KB cell line) [nM] | IC50 (SKOV-3 cell line) [nM] | % of Payload Release in 24 Hours Under Cleavage Conditions [1]
CC[C@@]1(O)C(=O)OCc2c1cc1n(c2=O)Cc2c-1nc1cc(F)c(C)c3c1c2[C@@H](NC(=O)OCc1ccc(NC(=O)[C@H](CCCCN)NC(=O)[C@@H](NC(=O)CCOCCOCCOCCOCCOCCOCCOCCOCCOCCN=[N+]=[N-])C(C)C)cc1)CC3 [Example 33, 4-((32S,35S)-35-(4-aminobutyl)-1-azido-32-isopropyl-30,33-dioxo-3,6,9,12,15,18,21,24,27-nonaoxa-31,34-diazahexatriacontan-36-amido)benzyl ((1S,9S)-9-ethyl-5-fluoro-9-hydroxy-4-methyl-10,13-dioxo-2,3,9,10,13,15-hexahydro-1H,12H-benzo[de]pyrano[3′,4′:6,7]indolizino[1,2-b]quinolin-1-yl)carbamate] | 0.3 | 0.13 | ++++ (‘++++’ indicates 76-100% release)
CC[C@@]1(O)C(=O)OCc2c1cc1n(c2=O)Cc2c-1nc1cc(F)c(C)c3c1c2[C@@H](NC(=O)OCc1ccc(NC(=O)[C@H](CCCCN)NC(=O)[C@H](Cc2ccccc2)NC(=O)CCOCCOCCOCCOCCOCCOCCOCCOCCOCCN=[N+]=[N-])cc1)CC3 (single isomer, unassigned) [Example 25] |  | 0.4 | +++ (‘+++’ indicates 51-75% release)
CC[C@@]1(O)C(=O)OCc2c1cc1n(c2=O)Cc2c-1nc1cc(F)c(C)c3c1c2[C@@H](NC(=O)OCCSSCCNC(=O)CCOCCOCCOCCOCCOCCOCCOCCOCCOCCN=[N+]=[N-])CC3 [Example 57, 37-azido-8-oxo-11,14,17,20,23,26,29,32,35-nonaoxa-3,4-dithia-7-azaheptatriacontyl ((1S,9S)-9-ethyl-5-fluoro-9-hydroxy-4-methyl-10,13-dioxo-2,3,9,10,13,15-hexahydro-1H,12H-benzo[de]pyrano[3′,4′:6,7]indolizino[1,2-b]quinolin-1-yl)carbamate] | 0.6 | 0.9 | +++ (‘+++’ indicates 51-75% release)
CC[C@@]1(O)C(=O)OCc2c1cc1n(c2=O)Cc2c-1nc1cc(F)c(C)c3c1c2[C@@H](NC(=O)OCc1ccc(NC(=O)[C@H](CCCNC(N)=O)NC(=O)[C@@H](NC(=O)CCOCCOCCOCCOCCOCCOCCOCCOCCOCCN=[N+]=[N-])C(C)C)cc1)CC3 [Example 10, 4-((32S,35S)-1-azido-32-isopropyl-30,33-dioxo-35-(3-ureidopropyl)-3,6,9,12,15,18,21,24,27-nonaoxa-31,34-diazahexatriacontan-36-amido)benzyl-((1S,9S)-9-ethyl-5-fluoro-9-hydroxy-4-methyl-10,13-dioxo-2,3,9,10,13,15-hexahydro-1H,12H-benzo-[de]-pyrano-[3′,4′:6,7]-indolizino-[1,2-b]-quinolin-1-yl)-carbamate] |  | 10.7 | +++ (‘+++’ indicates 51-75% release)
CCc1c2c(nc3ccc(OCCCNC(=O)OCc4ccc(NC(=O)[C@H](CCCCN)NC(=O)[C@H](Cc5ccccc5)NC(=O)CCOCCOCCOCCOCCOCCOCCOCCOCCOCCN=[N+]=[N-])cc4)cc13)-c1cc3c(c(=O)n1C2)COC(=O)[C@]3(O)CC [Example 28, 4-((32S,35S)-35-(4-aminobutyl)-1-azido-32-benzyl-30,33-dioxo-3,6,9,12,15,18,21,24,27-nonaoxa-31,34-diazahexatriacontan-36-amido)benzyl (3-(((S)-4,11-diethyl-4-hydroxy-3,14-dioxo-3,4,12,14-tetrahydro-1H-pyrano[3′,4′:6,7]indolizino[1,2-b]quinolin-9-yl)oxy)propyl)carbamate] | 72.2 |  | +++ (‘+++’ indicates 51-75% release)
CCc1c2c(nc3ccc(OCC(=O)N/N=C(\C)c4cccc(OCCOCCOCCOCCOCCOCCN=[N+]=[N-])c4)cc13)-c1cc3c(c(=O)n1C2)COC(=O)[C@]3(O)CC [Example 70, (S,E)-N′-(1-(3-((17-azido-3,6,9,12,15-pentaoxaheptadecyl)oxy)phenyl)ethylidene)-2-((4,11-diethyl-4-hydroxy-3,14-dioxo-3,4,12,14-tetrahydro-1H-pyrano[3′,4′:6,7]indolizino[1,2-b]quinolin-9-yl)oxy)acetohydrazide] |  | 17.9 | 
